We go through two compounds from patent US20100143890A1 (priority 2008, published 2010).

Structures are written as SMILES.

In the assay the test system is AI virus proteins (3425P and 3427P, ProSci Inc.); H5 protein. The assay is classed as binding, avian influenza virus.

`CC(=O)N[C@H]1[C@H]([C@H](O)[C@H](O)CO)O[C@@](O[C@H]2[C@@H](O)[C@@H](CO)O[C@@H](O[C@H]3[C@H](O)[C@@H](O)C(O)O[C@@H]3CO)[C@@H]2O)(C(=O)O)C[C@@H]1O` (some centres unmarked) [3-silaiic-lactose]: the “binding properties compared with commercially available antibody” value is listed as “not active”.
Under `CC(=O)NC1C(O)CC(OCC2OC(OC3C(CO)OC(O)C(O)C3O)C(O)C(O)C2O)(C(=O)O)OC1C(O)C(O)CO` (centres unmarked) [6′-sialic lactose] stands “not active”.
